Source: PMC9825998 (The Journal of Physiology, 2022)
Like-named read-outs stand apart in the source and are kept apart here.

Experiments:
Kir6.2‐K39R+SUR1 [1] = biological target: T1, Kir6.2‐K39R+SUR1 (Homo sapiens, UniProt Q14654, K39R); set-up: method as in previous submission of this manuscript; settings: construct not specified further, quoted by Referee #4, ref previous submission of this manuscript; cited from earlier work
T1 construct: expressed in transfected cells; host or cells: HEK293T

Kir6.2‐K39A+SUR1 [2] = biological target: T2, Kir6.2‐K39A+SUR1 (Homo sapiens, UniProt Q14654, K39A); set-up: method as in previous submission of this manuscript; settings: construct not specified further, quoted by Referee #4, ref previous submission of this manuscript; cited from earlier work
T2 construct: expressed in transfected cells; host or cells: HEK293T

Kir6.2+SUR1 = biological target: T3, Kir6.2+SUR1 (Homo sapiens, UniProt Q14654); experiment: Nucleotide inhibition of KATP currents in inside-out patches from HEK293T cells, Hill fit; format: biochemical
T3 construct: expressed in transfected cells; host or cells: HEK293T
Procedure: (§1) Human Kir6.2 and SUR1 were subcloned into pCGFP_EU [green fluorescent proten (GFP)‐tagged constructs] and pcDNA4/TO, respectively. Site‐directed mutagenesis and amber stop codons were introduced using the QuikChange XL system (Stratagene, San Diego, CA, USA) and verified by sequencing (DNA Sequencing and Services, Dundee, UK), as previously described (Usher et al., [2020]). HEK293T cells were grown in Dulbecco's modified Eagle's medium (DMEM; Sigma) with the addition of 10% fetal bovine serum, 100 U ml^−1 penicillin and 100 μg ml^−1 streptomycin (Thermo Fisher Scientific; Waltham, MA, USA) at 37°C, 5:95 CO2:air. Cells were seeded in T25 flasks for 24 h, before transfection with TransIT‐LT1 (Mirus Bio LLC, Madison, WI, USA). Protein expression and trafficking to the plasma membrane were optimized by including 300 μM tolbutamide in the transfection media (Yan et al., [2007]). 3‐(6‐Acetylnaphthalen‐2‐ylamino)‐2‐aminopropanoic acid (ANAP)‐tagged Kir6.2 constructs were cultured in the presence of 20 μM ANAP (free acid; AsisChem, Waltham, MA, USA), and 48 h post‐transfection the cells were re‐plated onto either poly‐D‐lysine‐coated glass‐bottomed FluoroDishes (FD35‐PDL‐100; World Precision Instruments) or poly‐L‐lysine‐coated 35 mm Petri dishes (Corning). pCDNA4/TO and pANAP were obtained from Addgene. peRF1‐E55D (Homo sapiens) and pCGFP_EU (Aequorea victoria) were kind gifts from the Chin Laboratory (MRC Laboratory of Molecular Biology, Cambridge, UK) and Gouaux Laboratory (Vollum Institute, Portland, OR, USA), respectively.
(§2) Extracellular (pipette) solutions contained (mM): 140 KCl, 1 EGTA and 10 Hepes (pH adjusted to 7.3 with KOH). The intracellular (bath) solutions contained (mM): 140 KCl, 1 EDTA, 1 EGTA, 10 Hepes (pH adjusted to 7.3 with KOH). Inside‐out patches were excised from transfected HEK293T cells using borosilicate glass pipettes (GC150F‐15; Harvard Apparatus, Holliston, MA, USA) pulled to a resistance of 1–3 MΩ. Data were acquired at a holding potential of −60 mV using an Axopatch 200B amplifier and a Digidata 1322A digitizer run through pClamp 9 software (Molecular Devices, San Jose, CA, USA).

Kir6.2‐K39E+SUR1 = biological target: T4, Kir6.2‐K39E+SUR1 (Homo sapiens, UniProt Q14654, K39E); experiment: as above; format: biochemical
T4 construct: expressed in transfected cells; host or cells: HEK293T
Procedure: as §1, §2

Kir6.2‐K39R+SUR1 [3] = biological target: T1, Kir6.2‐K39R+SUR1; experiment: as above; format: biochemical
Procedure: as §1, §2

Kir6.2‐K39A+SUR1 [4] = biological target: T2, Kir6.2‐K39A+SUR1; experiment: as above; format: biochemical
Procedure: as §1, §2

T2 sequence (Q14654 whole entry K39A): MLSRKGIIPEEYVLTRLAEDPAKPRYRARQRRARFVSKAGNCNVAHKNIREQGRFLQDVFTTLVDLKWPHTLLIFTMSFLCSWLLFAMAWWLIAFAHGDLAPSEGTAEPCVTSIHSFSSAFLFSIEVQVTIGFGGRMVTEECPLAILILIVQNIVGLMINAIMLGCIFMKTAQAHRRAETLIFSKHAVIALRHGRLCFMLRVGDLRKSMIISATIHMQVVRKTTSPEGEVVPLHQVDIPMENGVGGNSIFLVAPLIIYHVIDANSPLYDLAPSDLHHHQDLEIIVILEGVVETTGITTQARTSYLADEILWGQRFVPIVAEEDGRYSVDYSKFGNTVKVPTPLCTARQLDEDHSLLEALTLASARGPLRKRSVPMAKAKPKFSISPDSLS
T2 sequence (Q09428 whole entry partner): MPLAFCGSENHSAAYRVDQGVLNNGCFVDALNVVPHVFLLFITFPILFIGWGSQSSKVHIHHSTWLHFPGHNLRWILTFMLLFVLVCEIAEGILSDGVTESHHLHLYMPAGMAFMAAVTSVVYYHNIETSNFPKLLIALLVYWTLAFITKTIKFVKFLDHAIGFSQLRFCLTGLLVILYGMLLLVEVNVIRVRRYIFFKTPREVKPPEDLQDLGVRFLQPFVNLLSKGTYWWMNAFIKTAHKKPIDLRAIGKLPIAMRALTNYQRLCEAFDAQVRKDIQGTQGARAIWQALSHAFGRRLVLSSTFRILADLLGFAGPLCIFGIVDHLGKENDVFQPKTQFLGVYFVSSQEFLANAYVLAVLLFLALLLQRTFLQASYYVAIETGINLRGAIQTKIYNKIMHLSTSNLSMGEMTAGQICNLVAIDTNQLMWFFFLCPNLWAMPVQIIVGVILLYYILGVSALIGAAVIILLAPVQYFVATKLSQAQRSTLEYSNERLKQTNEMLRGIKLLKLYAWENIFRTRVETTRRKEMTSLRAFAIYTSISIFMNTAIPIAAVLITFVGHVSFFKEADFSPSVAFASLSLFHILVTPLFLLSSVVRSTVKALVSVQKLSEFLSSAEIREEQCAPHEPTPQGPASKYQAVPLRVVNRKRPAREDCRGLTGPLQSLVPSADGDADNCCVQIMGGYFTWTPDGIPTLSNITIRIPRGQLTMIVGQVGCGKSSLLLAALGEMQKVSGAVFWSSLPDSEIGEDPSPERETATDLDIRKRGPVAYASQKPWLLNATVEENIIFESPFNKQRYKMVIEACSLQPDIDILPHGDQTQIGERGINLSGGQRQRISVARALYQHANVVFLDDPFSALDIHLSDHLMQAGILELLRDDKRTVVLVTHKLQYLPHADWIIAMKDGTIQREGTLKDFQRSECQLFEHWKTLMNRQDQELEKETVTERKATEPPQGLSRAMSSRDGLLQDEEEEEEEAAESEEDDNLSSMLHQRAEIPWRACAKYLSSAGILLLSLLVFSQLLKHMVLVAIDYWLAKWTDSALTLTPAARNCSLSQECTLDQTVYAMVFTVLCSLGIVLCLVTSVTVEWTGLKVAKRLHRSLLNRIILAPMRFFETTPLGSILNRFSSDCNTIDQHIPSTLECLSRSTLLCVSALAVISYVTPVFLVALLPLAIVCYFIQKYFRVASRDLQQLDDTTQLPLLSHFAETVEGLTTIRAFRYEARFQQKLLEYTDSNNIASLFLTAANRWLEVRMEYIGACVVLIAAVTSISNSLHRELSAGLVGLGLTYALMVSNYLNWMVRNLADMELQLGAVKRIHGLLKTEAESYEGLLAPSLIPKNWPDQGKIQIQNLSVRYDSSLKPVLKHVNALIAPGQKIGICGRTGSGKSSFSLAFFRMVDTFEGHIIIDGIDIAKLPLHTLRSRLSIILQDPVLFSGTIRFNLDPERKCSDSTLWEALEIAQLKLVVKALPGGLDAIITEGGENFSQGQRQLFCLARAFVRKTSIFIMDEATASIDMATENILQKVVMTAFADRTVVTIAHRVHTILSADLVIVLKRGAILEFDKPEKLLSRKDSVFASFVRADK
T1 sequence (Q14654 whole entry K39R): as the sequence (Q14654 whole entry K39A) above, with A39R counted along it
T1 sequence (Q09428 whole entry partner): as the sequence (Q09428 whole entry partner) above
T3 sequence (Q14654 whole entry): as the sequence (Q14654 whole entry K39A) above, with A39K counted along it
T3 sequence (Q09428 whole entry partner): as the sequence (Q09428 whole entry partner) above
T4 sequence (Q14654 whole entry K39E): as the sequence (Q14654 whole entry K39A) above, with A39E counted along it
T4 sequence (Q09428 whole entry partner): as the sequence (Q09428 whole entry partner) above

Nc1ncnc2c1ncn2[C@@H]1O[C@H](COP(=O)(O)OP(=O)(O)OP(=O)(O)O)[C@H]2OC3(O[C@H]21)C([N+](=O)[O-])=CC(=[N+]([O-])[O-])C=C3[N+](=O)[O-] (stereo partly drawn) [TNP‐ATP, trinitrophenyl adenosine triphosphate]
IC50 (Kir6.2‐K39R+SUR1 [1]): 2.62 µM | IC50 (Kir6.2‐K39A+SUR1 [2]): 13.2 µM | IC50 (Kir6.2+SUR1): 1.08 µM | IC50 (Kir6.2‐K39E+SUR1): 11.8 µM | IC50 (Kir6.2‐K39R+SUR1 [3]): 2.48 µM | IC50 (Kir6.2‐K39A+SUR1 [4]): 11 µM
